Holding throughout (assay type): cell-based, human
The subject of series [1] is HaCaT cells. Kind of series: Soft-agar cell transformation assay after UVB. The settings on record: UVB every other day for 14 days. As for the experimental part:
FIG. 11: UVB-induced HaCaT cells transformation. The cell transformation was determined using a Transformation assay kit (Cell Biolabs, Inc.). *: p-value<0.05 vs. control. **: p-value<0.05 vs. UVB alone. The data represents an average of 3 sets of independent experiments.
To determine the chemoprevetive function of cNOS inhibitor for UVB-induced skin cell transformation, cells were treated with sham or UVB every other day for 14 days in the presence or absence of L-NAME (1 mM in media) all time. The cells were detached from plate and same amount of cells were seeded in soft-agar in 96-well microtiter plate. At day 10, the cells alone with soft-agar were solubilized in the wells using Cytoselect buffer (Cell Biolabs, Inc., San Diego, Calif.) and the amount of transformed cells was determined by fluorescence intensity using a Spectra Max M2 fluorescent platereader (Molecular Devices).

The subject of series [2] is HaCaT cells. The experiment in a line: Neutral comet assay of UVB-induced DNA damage in HaCaT cells. The note with it: for reduction of UVB-induced DNA breakage in keratinocytes: L-NAME 1 mM, UVB 10 mJ/cm^2. As for the experimental part:
FIGS. 10A-10B: UVB-induced DNA damage in HaCaT cells. The image (FIG. 10A) was captured by Cytation 3 Imaging Analyzer (BioTek, Winooski, Vt.); and, the DNA density (FIG. 10B) was analyzed by ImageJ (Version 1.46r. NIH) with Comet Assay Plugin (Pathology & Lab Med UNC-CH). *: p-value<0.05 vs. DMSO alone; **: p-value<0.05 vs. NAME. ***: p-value<0.05 vs. UV+DMSO. The data represents an average of DNA damage analysis for more than five cells.
To assess the effect of cNOS inhibitor on UVB-induced DNA damage in keratinocutes, HaCaT cells were treated with DMSO (solvent) or L-NAME (1 mM) for 1 hour prior to UVB radiation (10 mJ/cm^2). At […] post-UVB, the cells were collected and DNA damage was determined using a neutral comet assay kit following manufacture's protocol (Trevigen, Gaithersburg, Md.).

For a further series, the system named is IKKα mRNA. Kind of series: Quantitative real-time PCR of IKKα mRNA expression after UVB. The settings on record: HaCaT pre-treated with actinomycin D 5 μg/mL, UVB 50 mJ/cm^2. How it is done:
FIG. 3: Quantitative real-time PCR analysis of mRNA expression of IKKα in HaCaT human keratinocyte. The cells were pre-treated with DMSO or […] (Act.D, 5 μg/mL) and treated with of UVB (50 mJ/cm^2). The mRNA expression was normalized to GAP OH expression and depicted as fold change vs. DMSO control.
(In general: In qPCR the cycle at which signal appears reflects the starting amount.)

Starred links: 1 amine or outer side, 2 acyl side, 3 side chain; linkers in the order of their positions; H or OH if unused. Positions of bridges follow the written chain, without caps; N, C: chain ends. Non-standard residues stand in square brackets, D forms with d. Residues, ends and D or L forms follow the SMILES beside them. Chains are numbered I, II in the order given. Actinocin(9to1) = Cc1c2oc3c(C)ccc(C(=O)[*:1])c3nc-2c(C(=O)[*:2])c(N)c1=O; NMeV = CN[C@H](C(=O)O)C(C)C; Sar = CNCC(=O)O

This note sets out measurements from patent US20190038723A1, “Inhibiting UVB-Irradiation Damage By Targeting Nitric Oxide Synthases (cNOS)” (priority 2016, published 2019).

With `COC(=O)[C@@H](N)CCCNC(=N)N[N+](=O)[O-]` [L-NAME], the “suppression of UVB-induced transformation of keratinocytes” value with HaCaT cells [1] (L-NAME 1 mM in media) is on record as “almost totally suppresses”. The “reading of transformed cells (fluorescence intensity)” value in the series on HaCaT cells [1] (L-NAME 1 mM in media all time, soft-agar day 10, UVB alone 3.2) was 1.3. Besides, the “percentage of UVB-induced tail DNA content” value in the series on HaCaT cells [2] (L-NAME 1 mM for 1 hour prior to UVB 10 mJ/cm^2, cells collected at 30 mM post-UVB, UVB+DMSO 49.2%) came out at 32.4%. In the series on HaCaT cells [2] (L-NAME 1 mM without UVB, DMSO alone 20.7%), the “tail DNA content, L-NAME alone” value was 25.6%. For the same compound, the “reduction of UVB-induced DNA breakage in keratinocytes” value is listed as 58.9% in the series with HaCaT cells [2] (Control = DMSO alone) and 71.2% in the series on HaCaT cells [2] (Control = L-NAME alone).

Regarding `Cc1c2oc3c(C)ccc(C(=O)N[C@@H]4C(=O)N[C@H](C(C)C)C(=O)N5CCC[C@H]5C(=O)N(C)CC(=O)N(C)[C@@H](C(C)C)C(=O)O[C@@H]4C)c3nc-2c(C(=O)N[C@@H]2C(=O)N[C@H](C(C)C)C(=O)N3CCC[C@H]3C(=O)N(C)CC(=O)N(C)[C@@H](C(C)C)C(=O)O[C@@H]2C)c(N)c1=O` [actinomycin D] (I: T[dV]P[Sar][NMeV] / II: T[dV]P[Sar][NMeV]; ester I:1-I:C, II:1-II:C; linker I:N-II:N via Actinocin(9to1)), the “effect on IKKα mRNA level post-UVB” value in the series with IKKα mRNA is “does not have a statistically significant effect”.
